Source: patent US8952177B2 (Janssen Pharmaceutica NV, priority 2013, dated 2015)
Structures can show the parent of a compound that is named as a salt. Where two headings read alike, the source gives them in different places.

How the values were obtained:
human FLAP = human FLAP (Homo sapiens (Human), UniProt P20292); experiment: FLAP binding assay (HTRF format); details: read-out: FLAP Binding wild type HTRF Ki
Experimental: The ability of the compounds of the present invention to treat a FLAP-mediated disease and/or disorder, or associated symptoms or complications thereof, was determined using the following procedures. Binding assay data represent the average value obtained from two different assay plates, with samples run in duplicate on each plate. Human whole blood assay data represent a single replicate on an assay plate using whole blood from at least one healthy donor.
The assay below is used to test the modulatory activity of compounds against FLAP. Human and mouse FLAP-encoding DNA was amplified by polymerase chain reaction and cloned into pFastBacl (Invitrogen) with a NH2-terminal 6-His tag for expression in Spodoptera frugiperda (Sf-9) cells. FLAP-containing membranes were prepared as was a FITC-labeled FLAP modulator (3-(3-(tert-butylthio)-1-(4-chlorobenzyl)-5-(quinolin-2-ylmethoxy)-1H-indol-2-yl)-2,2-dimethylpropanoic acid). The FLAP binding assay is performed in HTRF format (homogeneous time resolved fluorescence). […] The reaction is allowed to proceed for two hours after which the plate is read on an Envision plate reader in HTRF mode. Data are expressed as a HTRF ratio.
For human FLAP binding assays, data are analyzed with 3DX Explorer software. […] For analysis, data from multiple runs are averaged and each compound may be tested in 2 to 20 runs. Each run comprises two plates and each plate includes duplicates. Data from each plate is averaged and data are imported into 3DX. The data from multiple runs are aggregated as the average of duplicates of the calculated ratios in order to calculate Ki and IC50 values. Numbers in parentheses are the number of runs for the assay.

[1] = system: leukotriene pathway in human whole blood (LTB4); experiment: Human whole blood assay (LTB4 after calcium ionophore A23187 stimulation); format: cell-based; details: human whole blood diluted 1:1 in RPMI, 15 min pre-incubation, A23187 7 μg/mL for 30 min at 37° Celsius
Procedure, shortened: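 Heparinised human whole blood, diluted 1:1 in RPMI, was preincubated with compound for 15 min at 37° C. before stimulation with A23187 (7 μg/mL) for 30 min. Plasma LTB4 was measured by immunoassay kit and IC50 obtained by 4-parameter fit; single replicate per plate, blood from at least one donor.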

[2] = human FLAP-containing Sf-9 membranes, 25 nM HTRF ligand, 2 h, average of runs

human FLAP, sequence (P20292 whole entry): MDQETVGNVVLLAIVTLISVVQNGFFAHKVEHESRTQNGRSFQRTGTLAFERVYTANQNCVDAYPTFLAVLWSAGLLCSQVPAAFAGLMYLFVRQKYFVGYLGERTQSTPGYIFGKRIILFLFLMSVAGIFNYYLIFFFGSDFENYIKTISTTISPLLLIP

| SMILES | Ki (human FLAP; [2]) [nM] | IC50 ([1]; Homo sapiens) [nM] | IC50 [1] [nM] | Ki (human FLAP) [nM] |
| --- | --- | --- | --- | --- |
| Cn1cc(Cl)c(COc2ccc3nc([C@@H]4CCCC[C@@H]4C(=O)O)n(Cc4ccc(-c5ccc(C(F)(F)F)cc5)cc4)c3c2)n1 (racemic) [Example 151, racemic cis-2-(6-[(4-Chloro-1-methyl-1H-pyrazol-3-yl)methoxy]-1-{[4′-(trifluoromethyl)biphenyl-4-yl]methyl}-1H-benzimidazol-2-yl)cyclohexanecarboxylic acid] | 13 | 910 | – | – |
| Cc1ccc(COc2ccc3nc(C4CCCC[C@H]4C(=O)O)n(Cc4ccc(N5CCC(F)(F)CC5)cc4F)c3c2)nc1 (mixture of isomers) [Example 161, racemic cis-2-{1-[4-(4,4-Difluoropiperidin-1-yl)-2-fluorobenzyl]-6-[(5-methylpyridin-2-yl)methoxy]-1H-benzimidazol-2-yl}cyclohexanecarboxylic acid] | 4 | 300 | – | – |
| Cn1ccc(COc2cc(F)c3nc(C4CCCC[C@@H]4C(=O)O)n(Cc4ccc(N5CC(F)(F)C5)cc4)c3c2)n1 (mixture of isomers) [Example 168, racemic cis-2-{1-[4-(3,3-Difluoroazetidin-1-yl)benzyl]-4-fluoro-6-[(1-methyl-1H-pyrazol-3-yl)methoxy]-1H-benzimidazol-2-yl}cyclohexanecarboxylic acid as the formate salt] | 7.8 | – | 3570 | – |
| Cn1ccc(COc2cc(F)c3nc([C@@H]4CCCC[C@@H]4C(=O)O)n(Cc4ccc(N5CCCCC5)cc4)c3c2)n1 (racemic) [Example 169, racemic cis-2-{4-Fluoro-6-[(1-methyl-1H-pyrazol-3-yl)methoxy]-1-(4-piperidin-1-ylbenzyl)-1H-benzimidazol-2-yl}cyclohexanecarboxylic acid as the HCl salt] | 12 | 1220 | – | – |
| Cc1cnc(COc2ccc3nc([C@@H]4CCCC[C@@H]4C(=O)O)n(Cc4ccc(N5CCC(C)CC5)cc4)c3c2)c(F)c1 (racemic) [Example 178, racemic cis-2-{6-[(3-Fluoro-5-methylpyridin-2-yl)methoxy]-1-[4-(4-methylpiperidin-1-yl)benzyl]-1H-benzimidazol-2-yl}cyclohexanecarboxylic acid] | 1.2 | 47 | – | – |
| Cc1cnc(COc2ccc3nc([C@H]4CCCC[C@H]4C(=O)O)n(Cc4ccc(N5CCC(F)CC5)cc4)c3c2)c(F)c1 (relative stereo) [Example 176, (1R*,2S*)-2-{6-[(3-Fluoro-5-methylpyridin-2-yl)methoxy]-1-[4-(4-fluoropiperidin-1-yl)benzyl]-1H-benzimidazol-2-yl}cyclohexanecarboxylic acid] | 0.42 | 110 | – | – |
| Cc1cnc(COc2ccc3nc([C@H]4CCCC[C@H]4C(=O)O)n(Cc4ccc(-c5ccc(C(F)(F)F)cc5)cc4)c3c2)c(F)c1 (single isomer, unassigned) [Example 139, (1R*,2S*)-2-(6-[(3-Fluoro-5-methylpyridin-2-yl)methoxy]-1-{[4′-(trifluoromethyl)biphenyl-4-yl]methyl}-1H-benzimidazol-2-yl)cyclohexanecarboxylic acid] | 0.47 | 140 | – | – |
| Cc1ccc(COc2ccc3nc([C@H]4CCCC[C@H]4C(=O)O)n(Cc4ccc(C#N)cc4)c3c2)nc1 (stereo in doubt) [Example 39, (1R*,2S*)-2-{1-(4-Cyanobenzyl)-6-[(5-methylpyridin-2-yl)methoxy]-1H-benzimidazol-2-yl}cyclohexanecarboxylic acid] | 10 | 1070 | – | – |
| Cn1ccc(COc2ccc3nc([C@@H]4CCCC[C@@H]4C(=O)O)n(Cc4ccc(OC(F)(F)F)cc4F)c3c2)n1 (stereo in doubt) [Example 51, racemic cis-2-{1-[2-Fluoro-4-(trifluoromethoxy)benzyl]-6-[(1-methyl-1H-pyrazol-3-yl)methoxy]-1H-benzimidazol-2-yl}cyclohexanecarboxylic acid] | 8 | 340 | – | – |
| Cn1ccc(COc2ccc3nc([C@@H]4CCCC[C@@H]4C(=O)O)n(Cc4ccc(OC(F)(F)F)cc4F)c3c2)n1 (stereo in doubt) [Example 52, (1S*,2R*)-2-{1-[2-Fluoro-4-(trifluoromethoxy)benzyl]-6-[(1-methyl-1H-pyrazol-3-yl)methoxy]-1H-benzimidazol-2-yl}cyclohexanecarboxylic acid] | > 10000 | > 10000 | – | – |
| Cn1ccc(COc2ccc3nc([C@H]4CCCC[C@H]4C(=O)O)n(Cc4ccc(OC(F)(F)F)cc4F)c3c2)n1 (stereo in doubt) [Example 53, (1R*,2S*)-2-(1-(2-Fluoro-4-(trifluoromethoxy)benzyl)-6-((1-methyl-1H-pyrazol-3-yl)methoxy)-1H-benzo[d]imidazol-2-yl)cyclohexanecarboxylic acid] | 3 | 270 | – | – |
| CCC(CC)(Cc1nc2ccc(OCc3ccc(C)cn3)cc2n1Cc1ccc(Br)cc1)C(=O)O [Example 8, 2-({1-(4-Bromobenzyl)-6-[(5-methylpyridin-2-yl)methoxy]-1H-benzimidazol-2-yl}methyl)-2-ethylbutanoic acid as the TFA salt] | 10 | 2320 | – | – |
| CCC(CC)(Cc1nc2ccc(OCc3ccc(C)cn3)cc2n1Cc1cccc(Br)c1)C(=O)O [Example 14, 2-({1-(3-Bromobenzyl)-6-[(5-methylpyridin-2-yl)methoxy]-1H-benzimidazol-2-yl}methyl)-2-ethylbutanoic acid] | 56 | > 10000 | – | – |
| CCC(CC)(Cc1nc2ccc(OCc3ccc(C)cn3)cc2n1Cc1ccc(OC(F)(F)F)cc1)C(=O)O [Example 22, 2-Ethyl-2-({6-[(5-methylpyridin-2-yl)methoxy]-1-[4-(trifluoromethoxy)benzyl]-1H-benzimidazol-2-yl}methyl)butanoic acid] | 24 | 1660 | – | – |
| CCC(CC)(Cc1nc2ccc(OCc3ccc(C)cn3)cc2n1Cc1ccc(OC(F)(F)F)cc1F)C(=O)O [Example 23, 2-Ethyl-2-({1-[2-fluoro-4-(trifluoromethoxy)benzyl]-6-[(5-methylpyridin-2-yl)methoxy]-1H-benzimidazol-2-yl}methyl)butanoic acid] | 18 | 910 | – | – |
| CCC(CC)(Cc1nc2ccc(OCc3ccc(C)cn3)cc2n1Cc1ccc(OC(F)(F)F)c(Cl)c1)C(=O)O [Example 24, 2-({1-[3-Chloro-4-(trifluoromethoxy)benzyl]-6-[(5-methylpyridin-2-yl)methoxy]-1H-benzimidazol-2-yl}methyl)-2-ethylbutanoic acid] | 11 | > 10000 | – | – |
| CCC(CC)(Cc1nc2ccc(OCc3ccn(C)n3)cc2n1Cc1ccc(OC(F)(F)F)cc1F)C(=O)O [Example 56, 2-Ethyl-2-({1-[2-fluoro-4-(trifluoromethoxy)benzyl]-6-[(1-methyl-1H-pyrazol-3-yl)methoxy]-1H-benzimidazol-2-yl}methyl)butanoic acid] | 46 | ~2000 | – | – |
| Cc1ccc(COc2cc(F)c3nc(CC4(C(=O)O)CCCC4)n(Cc4ccc(Br)cc4)c3c2)nc1 [Example 61, 1-({1-(4-Bromobenzyl)-4-fluoro-6-[(5-methylpyridin-2-yl)methoxy]-1H-benzimidazol-2-yl}methyl)cyclopentanecarboxylic acid] | 6 | 2280 | – | – |
| CCC(CC)(Cc1nc2c(F)cc(OCc3ccc(C)cn3)cc2n1Cc1ccc(Br)cc1)C(=O)O [Example 65, 2-({1-(4-Bromobenzyl)-4-fluoro-6-[(5-methylpyridin-2-yl)methoxy]-1H-benzimidazol-2-yl}methyl)-2-ethylbutanoic acid as the TFA salt] | 6 | 1120 | – | – |
| CCC(CC)(Cc1nc2c(F)cc(OCc3ccc(C)cn3)cc2n1Cc1ccc(C)cc1)C(=O)O [Example 71, 2-Ethyl-2-({4-fluoro-1-(4-methylbenzyl)-6-[(5-methylpyridin-2-yl)methoxy]-1H-benzimidazol-2-yl}methyl)butanoic acid as the TFA salt] | 49 | 3350 | – | – |
| Cc1ccc(COc2cc(F)c3nc(CC4(C(=O)O)CCCC4)n(Cc4ccc(OC(F)(F)F)cc4)c3c2)nc1 [Example 72, 1-({4-Fluoro-6-[(5-methylpyridin-2-yl)methoxy]-1-[4-(trifluoromethoxy)benzyl]-1H-benzimidazol-2-yl}methyl)cyclopentanecarboxylic acid as the TFA salt] | – | – | 1930 | 60 |
| Cc1ccc(Cn2c(CC3(C(=O)O)CCCC3)nc3c(F)cc(OCc4ccc(C)cn4)cc32)cc1 [Example 73, 1-({4-Fluoro-1-(4-methylbenzyl)-6-[(5-methylpyridin-2-yl)methoxy]-1H-benzimidazol-2-yl}methyl)cyclopentanecarboxylic acid as the TFA salt] | 52 | 3250 | – | – |
